Laboratory results published in patent US20230287316A1, “INTER-ORGAN PLATFORM WITH TISSUE-SPECIFIC NICHES FOR A MICROPHYSIOLOGICAL SYSTEM ON A CHIP” (THE TRUSTEES OF COLUMBIA UNIVERSITY IN THE CITY OF NEW YORK, priority 2020, published 2023).

Legend:
ES cell monolayers = experiment: Linsitinib dose response in ES cell monolayers (MTT and luminescence viability); type: cell-based, human; details: 0-100 µM over 72 hours
Protocol: (§1) MTT viability assay was used to determine drug toxicity, with luminescence generated by viable cells measured at the endpoint (10^4 cells per well, mean± s.e.m., n = 3). […] In order to determine cancer cell viability, cells were lysed and treated with luciferin using a Bright-Glo™ assay, with subsequent luminescence measured (10^4 cells per well, mean± s.e.m., n = 3).
(§2) Cell viability was analyzed using a previously established protocol.^59 Cancer cell viability was measured for GFP-Luciferase labelled cancer cells using ONE-Glo luciferase substrate that was prepared according to manufacturer’s protocol (Promega). Samples were collected following 3, 7, and 21 days cycles of linsitinib treatment. Where noted, longitudinal cell viability was also assessed using luminescence, though at the cost of signal strength. Briefly, in vivo grade VivoGlo™ Luciferin (Promega) was made at a 200x stock concentration (30 mg/ml) in water, added to sample culture media at a 1:200 dilution, and scanned using a spectrophotometer (Biotek). Some of the IC50 values were determined using cell viability data generated using an MTT assay (RealTime-Glo™ MT Cell Viability Assay, Promega) that were analyzed according to manufacturer’s protocol.

[1] = system: engineered cardiac tissues; experiment: Linsitinib on engineered cardiac tissues cultured in isolation; type: cell-based, human; details: isolated
Protocol: (§3) FIGS. 32A-D show aspects of responses of human engineered bone ES tumors and cardiac tissues to linsitinib in isolated platform chambers. […] Luminescence as a function of cancer cell number and viability was measured (mean± s.e.m., n = 6 for day 3, and n = 3 for day 7 and 21).
Specifically, linsitinib was dissolved at a 10 mM concentration in DMSO (Corning) and mixed in with the respective cell medium at a […] concentration unless otherwise noted. Vehicle treatments involved just the addition of DMSO at identical volumes as a control. Tissues were randomly assigned to experimental groups. Medium was changed every day.
(§4) To measure the cardiac contractility online, we took contractility videos of the tissues that were analyzed using the native MATLAB code we previously developed. Tissue contractility was measured by tracking the change in tissue area as a function of time. Acquired video frames were inverted and an automated intensity threshold was used to identify cell location in the video frame. First, a baseline time point in the video corresponding to a relaxed tissue state was selected. Absolute differences in cell area from the baseline frame were then calculated to create a time course of cell area changes over time. The resulting time courses were analyzed using a native MATLAB (MATHWorks) automated peak finding algorithm to determine locations of maximum cell contractions in the time profiles. Beat period lengths were determined from the length of time between the pairs of local maxima, and the beat frequencies were determined by inverting beat periods. The rate of proarrhythmic events was calculated by the ratio of the number of proarrhythmic events over the total number of beats.

[2] = system: non-metastatic RD-ES cell line; experiment: Linsitinib 12 µM on non-metastatic ES cell monolayers, luminescence viability; type: cell-based, human; details: 12 µM over 72 hours
Protocol: as §1
(§5) Both culture media were supplemented with 10% FBS and 1 % penicillin/streptomycin.
as §2

phosphorylated IGF-1R = target: T1, phosphorylated IGF-1R (Homo sapiens, UniProt P08069); experiment: Human Phospho-IGF1R ELISA in ES cell monolayers; type: cell-based; details: 12 µM for 6 hours, non-metastatic and metastatic ES cell lines
T1 construct: both RD-ES and SK-N-MC monolayers were treated with 12 µM linsitinib for 6 hours, lysed; endogenous in cells; host or cells: RD-ES (ATCC HTB-166) and SK-N-MC (ATCC HTB-10) Ewing sarcoma cell lines
T1 sequence (P08069 31-1367): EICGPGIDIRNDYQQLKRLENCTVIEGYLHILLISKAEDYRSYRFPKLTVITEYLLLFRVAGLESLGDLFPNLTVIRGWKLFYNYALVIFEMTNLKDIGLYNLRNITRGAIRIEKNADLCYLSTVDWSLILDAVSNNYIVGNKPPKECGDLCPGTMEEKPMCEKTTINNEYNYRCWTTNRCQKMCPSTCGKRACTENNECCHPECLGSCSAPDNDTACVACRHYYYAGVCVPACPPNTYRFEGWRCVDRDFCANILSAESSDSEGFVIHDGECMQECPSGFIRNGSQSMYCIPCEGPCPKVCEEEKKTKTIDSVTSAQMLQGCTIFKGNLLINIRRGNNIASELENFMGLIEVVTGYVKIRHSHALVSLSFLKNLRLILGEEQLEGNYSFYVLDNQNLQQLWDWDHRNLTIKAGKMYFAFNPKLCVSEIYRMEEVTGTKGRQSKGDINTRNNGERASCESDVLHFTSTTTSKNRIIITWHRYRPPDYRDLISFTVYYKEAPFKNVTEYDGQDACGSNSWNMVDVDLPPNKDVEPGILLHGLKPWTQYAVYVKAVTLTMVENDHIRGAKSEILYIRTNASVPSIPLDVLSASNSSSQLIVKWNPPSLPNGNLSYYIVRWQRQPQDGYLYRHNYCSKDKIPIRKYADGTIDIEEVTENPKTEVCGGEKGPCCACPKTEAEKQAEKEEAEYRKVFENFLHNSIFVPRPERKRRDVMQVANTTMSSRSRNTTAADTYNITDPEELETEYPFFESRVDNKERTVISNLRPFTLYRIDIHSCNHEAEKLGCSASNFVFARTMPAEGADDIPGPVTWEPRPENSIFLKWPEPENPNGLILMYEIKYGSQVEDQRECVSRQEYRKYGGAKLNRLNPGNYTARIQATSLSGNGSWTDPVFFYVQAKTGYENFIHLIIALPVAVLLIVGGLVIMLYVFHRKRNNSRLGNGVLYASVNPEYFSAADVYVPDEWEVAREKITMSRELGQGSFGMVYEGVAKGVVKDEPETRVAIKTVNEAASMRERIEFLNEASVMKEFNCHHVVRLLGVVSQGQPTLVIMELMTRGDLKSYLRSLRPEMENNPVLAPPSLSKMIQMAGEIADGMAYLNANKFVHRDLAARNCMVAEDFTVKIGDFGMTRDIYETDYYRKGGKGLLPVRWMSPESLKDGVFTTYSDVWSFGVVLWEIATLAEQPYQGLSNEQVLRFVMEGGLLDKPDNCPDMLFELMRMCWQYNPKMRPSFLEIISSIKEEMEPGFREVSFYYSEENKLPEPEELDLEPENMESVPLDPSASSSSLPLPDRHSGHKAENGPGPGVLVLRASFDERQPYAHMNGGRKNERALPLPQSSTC

[3] = system: metastatic SK-N-MC cell line; experiment: Linsitinib 12 µM on metastatic ES cell monolayers, luminescence viability; type: cell-based, human; details: 12 µM over 72 hours
Protocol: as §1, §5, §2

cardiac tissues = experiment: Linsitinib on cardiac tissue in the integrated platform with microfluidic perfusion; type: cell-based, human
Protocol: The TE-ES and cardiac tissues were then cultured in the integrated platform with perfusion of mixed media. Linsitinib was introduced into the reservoir and delivered to tissues via circulation of perfusate and diffusion into the tissues.
FIGS. 35A-E show aspects of responses of human engineered bone ES tumors and cardiac tissues to linsitinib in the integrated platform with microfluidic perfusion. FIGS. 35A and 35B show the responses when non-metastatic ES bone tumors and cardiac tissues were exposed to linsitinib (12 µM) over a period of 72 hours in either isolated culture or within the perfused integrated platform. Luminescence (FIG. 35A) and LDH secretion (FIG. 35B) as functions of cancer cell number and viability as well as cytotoxicity, respectively, were measured (mean± s.e.m., n = 3).
as §4

[4] = system: metastatic TE-ES (SK-N-MC) bone tumor; experiment: Linsitinib on metastatic engineered ES bone tumors (TE-ES) cultured in isolation; type: cell-based, human; details: 12 µM
Protocol: as §3
Supernatants were collected from each individual sample across the duration of the drug treatments and were analyzed for osteoblast function (OCN, OPN) and for cytotoxicity (LDH) (mean± s.e.m., n = 3).
Two weeks following the initiation of osteogenic differentiation, aggregates of ES tumor cells were prepared as described previously, using 0.3 × 10^6 cells per aggregate. After 1 week of culture, corresponding to the end of bone tissue culture (3 weeks), the primary ES cell aggregates were placed into the engineered bone constructs (3 aggregates per construct, placed apart of each other). Tumor models were established for two different types of primary ES cells: non-metastatic (RD-ES) and metastatic (SK-N-MC). Tissue engineered RD-ES and SK-N-MC tumors were cultured in the RPMI and EMEM media, respectively, supplemented with 10% FBS and 1% penicillin/streptomycin. Bone constructs cultured without tumor cell aggregates (TE-bone) in RPMI and EMEM media were used as controls.
as §2
Osteocalcin (OCN), osteopontin (OPN), and lactic acid dehydrogenase (LDH) secreted levels were all measured using a similar approach. Supernatants were isolated from controls and drug treated TE-ES and equal amounts were used in each assay according to the manufacturer’s instructions. For OCN a Human Osteocalcin Quantikine^R ELISA (R&D Systems) was used, while for OPN it was a Human Osteopontin Quantikine^R ELISA (R&D Systems). LDH secretion was determined using a Lactate Dehydrogenase Assay Kit (Colorimetric; Abcam).

beating frequency ([1]; 12 µM, after 3 days of exposure): increased beating frequency
response to subsequent isoproterenol exposure ([1]; after 12 µM linsitinib): the inotropic response was not observed
levels of phosphorylated IGF-1R (phosphorylated IGF-1R): significant decreases
response to subsequent isoproterenol exposure (cardiac tissues; after 12 µM linsitinib, integrated platform): expected inotropic response
Compound: C[C@]1(O)C[C@@H](c2nc(-c3ccc4ccc(-c5ccccc5)nc4c3)c3c(N)nccn32)C1 [linsitinib]
IC50 (MTT viability assay) (ES cell monolayers): two orders of magnitude lower than the effective plasma concentration observed in patients
IC50 (ES cell monolayers; Homo sapiens, GFP-luciferase cells, read-out: IC50 (luminescence as a proxy for cell viability)): ~12 µM
rate of proarrhythmic events per beat ([1]; 12 µM): around 36%
drug efficacy (luminescence viability) [2]: significant drug efficacy
drug efficacy (luminescence viability) [3]: significant drug efficacy
rate of proarrhythmic events (cardiac tissues; 12 µM, integrated model): approximately 11%
beat frequency (cardiac tissues; 12 µM, integrated platform): did not observe linsitinib-mediated changes in beat frequency
overall cardiotoxicity (cardiac tissues; integrated platform): mild cardiotoxicity
LDH secretion (cytotoxicity) ([4]; 3-week regimen, supernatants): spiked
Osteocalcin secretion ([4]; 3-week regimen, supernatants): decreased
cancer cell population (luminescence) ([4]; 21-day clinical treatment regimen): decrease in drug efficacy, as the cancer cell population continued to expand over the 21-day treatment cycle
drug response (luminescence) ([4]; after 3 days): significant drug response
osteopontin secretion ([4]; throughout the 21 days): decreased similar to osteocalcin
